Converted amounts (≈) assume the structure as drawn. Where two headings read alike, the source gives them in different places.
How the values were obtained:
[1] = Solubility in 0.1 N HCl, PBS buffer, FaSSIF and FeSSIF; format: physicochemical; conditions: thermodynamic from solid
Method: For testing solubility, saturated solutions of selected compounds of formula I are prepared in four different systems and compared to the solubility of entacapone. The solubility is tested in 0.1 N HCl (pH 1), PBS buffer (pH 7.4) and in two simulated gastric fluids, FaSSIF at pH 6.5 (for fasting state) and FeSSIF at pH 5.0 (for fed state) at ambient temperature. The content of the FaSSIF simulated gastric fluid is as follows:
The solubility testing is carried out by the following method: An excess amount of each compound is added to a 0.1 N HCl, PBS buffer, FeSSIF and FaSSIF. The suspensions are shaken for 10 min. After centrifugation the concentration is determined by HPLC. Reversed phase gradient HPLC method, column YMC Pro C8, 50 mm×4.0 mm, 3 μm, Eluent A: Water:trifluoroacetic acid (100:0.5 (v/v)), Eluent B: Acetonitrile:trifluoroacetic:acid (100:0.5 (v/v)). Column temperature 30° C., Flow rate 3.0 mL/min, Detection wavelength: 220 nm

[2] = Chemical hydrolysis stability at pH 1 and pH 7.4 (HPLC); format: physicochemical; conditions: 37° C., over 12 h
Method: The stability of compounds of the present invention is tested at pH 1 and at pH 7.4. The testing is carried out by the following HPLC method:
Chemical hydrolysis rates t1/2 [h] of selected compounds of formula I are determined in 0.1 N HCl (pH 1) and PBS buffer (pH 7.4) solution. Solutions are prepared by dissolving an appropriate amount of compound in 0.1 N HCl and PBS buffer solution. Samples were withdrawn at designated time intervals and analysed for remaining prodrug by HPLC at 37° C. over 12 h.
Reversed phase gradient HPLC method, column YMC Pro C8, 50 mm×4.0 mm, 3 μm, Eluent A: Water:trifluoroacetic acid (100:0.5 (v/v)), Eluent B: Acetonitrile:trifluoroacetic:acid (100:0.5 (v/v)). Column temperature 30° C., Flow rate 3.0 mL/min, Detection wavelength: 220 nm
For evaluation, the peak area of the respective compound from the first injection is defined as 100% relative concentration. The peak areas of all other subsequent injections are calculated in percentage relating to this standard. (relative concentration in %). The relative concentrations are plotted in a logarithmic scale (ln) against the injection times. Based on the assumption of a first order kinetic, the rate constant and half life times (t1/2 [h]) can be calculated.

[3] = Log D (pH 7.4) by isocratic HPLC; format: physicochemical; conditions: YMC Pro C18 column, phosphate buffer pH 7.4/acetonitrile 45/55
Method: LogD is an indicator for absorption and lipophilicity for ionized compounds under defined pH conditions and is measured by applying an isocratic HPLC Method at pH 7.4.
The log D has been tested at pH 7.4. The testing has been carried out by the following method: Isocratic HPLC method: Column YMC Pro C18, 150 mm×4.0 mm, 3 μm, Eluent Phosphate buffer pH 7.4/acetonitrile (45/55, (v/v)), Runtime 15-60 min, Flow rate 1.2 ml/min, Detection wavelength: 220 nm

[4] = Permeability in Caco-2 cells, apical to basolateral; format: in vitro ADME; set-up: dose or concentration left out as unconfirmed; conditions: human; 21d Caco-2 monolayer, apical pH 6.5 to basolateral pH 7.4, 60 minutes
From the text: The human adenocarcinoma cell line Caco-2 is used as an in vitro system to predict oral absorption. These cells serve as a model of small bowel tissue and permeation through these cells is a predictor for gastro-intestinal absorption. Further to being a model for oral absorption, permeability in Caco-2 cells may be predictive for the blood brain barrier permeability (P. Garberg et al.; Toxicology in vitro 19 (2005); 299-334). […] The permeability in Caco-2 cells has been tested by the following method:
The permeability of selected compounds of formula I across Caco-2 (21d Caco-2-culture) monolayer in the apical to basolateral direction is investigated. Control substances were ^3H-propranolol and ^3H-mannitol.
The nominal concentration of the test items is […]. The pH value is set to 6.5 for the apical transport medium and to 7.4 for the basolateral medium. Samples are obtained following 60 minutes (120 minutes for control samples) incubation from the basolateral receiver chamber. At sampling time approximately 600 μL of each well are transferred into an eppendorf vial and stored between −12° and −30° C. until HPLC or LC-MS/MS analysis. The control substances are quantified by liquid scintillation.

Plasma stability ex vivo = format: in vitro ADME; conditions: human plasma, 37° C., read-out: t1/2 plasma
Method: Plasma stability is determined in human and rat plasma ex vivo. For the determination of the plasma stability of the compounds of formula I, the test compounds were incubated with human plasma (c=5 μg/mL) at 37° C. for certain time intervals up to 60, resp. 120 min (depending on the compound). Afterwards the incubations were stopped by equivalent addition of acetonitrile for protein precipitation, and the samples were mixed and centrifuged. The supernatants were adequately diluted and analyzed by HPLC with UV detection at 305 nm.
The degradation of the compounds of formula I as well as the formation of the active drug entacapone were monitored, and the half-life times of the compounds of formula I were calculated from the obtained peak areas.

[5] = Solubility in Labrasol and TPGS/PG formulations; format: physicochemical
Method: Selected lipophilic carbonate compounds of formula I with promising Caco-2 permeabilities are formulated with different lipids/lipophilic excipients and/or micelles forming compounds in order to increase their solubilities. The following formulations are prepared by mixing the ingredients mentioned below: • i) Formulations comprising solubilizers in the form of lipides/lipophilic excipients: • ia) Formulation comprising Labrasol® and the selected compounds of Formula I • Labrasol®: • Caprylocaproyl macrogol-8-glyceride (CAS No. 85536-07-8 and 84963-88-2). This is a mixture of mono-, di- and triesters of glycerol and of PEG 400 with medium-chain fatty acids (C8-C10) which is marketed, for example, by Gattefossé under the mark Labrasol®; Labrasol® has an HLB value (hydrophil-lipophil-balance, Griffin, W. C.: Classification of surface active agents by HLB, J. Soc. Cosmet. 1, 1949) of 14 and has the following composition by weight:
• ib) Formulation comprising NanoSolve® 5401 (Lipoid GmbH, Germany) and the selected compounds of formula I • ic) Formulation comprising TPGS/PG in a weight ratio of 25% by weight of TPGS to 75% by weight of PG and the selected compounds of formula I. • PG: propylene glycol • TPGS: Vitamin E TPGS NF (d-α-tocopheryl polyethylene glycol 1000 succinate) which is marketed, for example, by Eastman Chemical Co • ii) Formulation comprising a micelles forming agent: • iia) Aqueous formulation comprising 30% by weight of Cremophor® RH 40 (relating to the weight of the aqueous phase) in water and the selected compounds of formula I • Cremophor® RH 40: • Generic names: • Polyoxyl 40 Hydrogenated Castor Oil (USP/NF). • Macrogol-Glycerolhydroxystearat (DAB). • Polyoxyethylenglyceroltrihydroxystearat (DAC). • Cremophor RH 40 is a non-ionic solubilizer and emulsifying agent obtained by reacting 45 moles of ethylene oxide with 1 mole of hydrogenated castor oil. The main constituent of Cremophor RH 40 is glycerol polyethylene glycol oxystearate, which, together with fatty acid glycerol polyglycol esters, forms the hydrophobic part of the product. The hydrophilic part consists of polyethylene glycols and glycerol ethoxylate. Cremophor RH 40 is a white to yellowish thin paste at 20° C. The HLB value lies between 14 and 16. Cremophor RH 40 is marketed by BASF AG.
The solubility of selected compounds of formula I in these formulations is measured and compared to the solubility of the compounds in 0.1N HCl (pH 1.0), PBS buffer (pH 7.4), and two simulated gastric fluids (i.e., FaSSIF (pH 6.5) simulating fasting sate and FeSSIF (pH 5.0) simulating fed state) (see above for details).

[6] = 0.1 N HCl, pH 1, simulated gastric fluid, ambient temperature, shaken 10 min, read-out: Solubility 0.1N HCl Ph 1.0
[7] = FaSSIF, pH 6.5, fassif, fasting state fluid, ambient temperature, read-out: Solubility FaSSIF Ph 6.5
[8] = FeSSIF, pH 5, fessif, fed state fluid, ambient temperature, read-out: Solubility FeSSIF Ph 5.0
[9] = PBS buffer, pH 7.4, aqueous buffer, ambient temperature, read-out: Solubility PBS Ph 7.4
[10] = pH 1, 0.1 N HCl, read-out: t1/2 at pH 1 (converted)
[11] = pH 7.4, PBS buffer, read-out: t1/2 at pH 7.4 (converted)

| Compound | solubility at 10 min [1, 6] [µg/mL] | solubility at 10 min [1, 7] [µg/mL] | solubility at 10 min [1, 8] [µg/mL] | solubility at 10 min [1, 9] [µg/mL] | half-life [2, 10] [h] | half-life [2, 11] [h] | chromatographic logD [3] | Papp A→B at 60 min [4] [×10⁻⁶ cm/s] | half-life at 5 μg/mL (Plasma stability ex vivo) [h] | solubility at 10 min ([1]; 0.1 N HCl, pH 1, simulated gastric fluid, Table 11, maximum solubility, read-out: Solubility 0.1N HCl pH 1.0) [µg/mL] | solubility at 10 min ([1]; FaSSIF, pH 6.5, fassif, Table 11, read-out: Solubility FaSSIF pH 6.5) [µg/mL] | solubility at 10 min ([1]; FeSSIF, pH 5, fessif, Table 11, read-out: Solubility FeSSIF pH 5.0) [µg/mL] | solubility at 10 min ([1]; PBS buffer, pH 7.4, aqueous buffer, Table 11, read-out: Solubility PBS pH 7.4) [µg/mL] | solubility ([5]; Labrasol, oil or lipid, read-out: Solubility Labrasol ®) [µg/mL] | solubility ([5]; organic solvent or mixture, 25% by weight TPGS, 75% by weight PG, read-out: Solubility TPGS/PG) [µg/mL] |
| --- | --- | --- | --- | --- | --- | --- | --- | --- | --- | --- | --- | --- | --- | --- | --- |
| CCN(CC)C(=O)/C(C#N)=C/c1cc(OC(=O)OC2CCCCC2)c(O)c([N+](=O)[O-])c1 [Compound 51, Carbonic acid 5-((E)-2-cyano-2-diethylcarbamoyl-vinyl)-2-hydroxy-3-nitro-phenyl ester cyclohexyl ester] | < 10 | 1200 (≈ 2780 µM) | 140 (≈ 324 µM) | 810 (≈ 1880 µM) | < 1 | 19.3 | 1.8 | 45 | 0.64 |  |  |  |  |  |  |
| CCN(CC)C(=O)/C(C#N)=C/c1cc(OC(=O)OC(C)C)c(O)c([N+](=O)[O-])c1 [Compound 7, Carbonic acid 5-((E)-2-cyano-2-diethylcarbamoyl-vinyl)-2-hydroxy-3-nitro-phenyl ester isopropyl ester] | 3 (≈ 7.67 µM) | 750 (≈ 1920 µM) | 90 (≈ 230 µM) | 950 (≈ 2430 µM) | 2.7 | 23.1 | 1 | 31 | 0.223 |  |  |  |  |  |  |
| CCOC(=O)Oc1cc(/C=C(\C#N)C(=O)N(CC)CC)cc([N+](=O)[O-])c1O [Compound 71, Carbonic acid 5-((E)-2-cyano-2-diethylcarbamoyl-vinyl)-2-hydroxy-3-nitro-phenyl ester ethyl ester] | 70 (≈ 186 µM) | 570 (≈ 1510 µM) | 1100 (≈ 2920 µM) | 800 (≈ 2120 µM) | 28.9 | 8.3 | 0.8 | 7.7 | 0.0133 |  |  |  |  |  |  |

Next, values leading:

| solubility at 10 min [1, 6] [µg/mL] | solubility at 10 min [1, 7] [µg/mL] | solubility at 10 min [1, 8] [µg/mL] | solubility at 10 min [1, 9] [µg/mL] | half-life [2, 10] [h] | half-life [2, 11] [h] | chromatographic logD [3] | Papp A→B at 60 min [4] [×10⁻⁶ cm/s] | half-life at 5 μg/mL (Plasma stability ex vivo) [h] | solubility at 10 min ([1]; 0.1 N HCl, pH 1, simulated gastric fluid, Table 11, maximum solubility, read-out: Solubility 0.1N HCl pH 1.0) [µg/mL] | solubility at 10 min ([1]; FaSSIF, pH 6.5, fassif, Table 11, read-out: Solubility FaSSIF pH 6.5) [µg/mL] | solubility at 10 min ([1]; FeSSIF, pH 5, fessif, Table 11, read-out: Solubility FeSSIF pH 5.0) [µg/mL] | solubility at 10 min ([1]; PBS buffer, pH 7.4, aqueous buffer, Table 11, read-out: Solubility PBS pH 7.4) [µg/mL] | solubility ([5]; Labrasol, oil or lipid, read-out: Solubility Labrasol ®) [µg/mL] | solubility ([5]; organic solvent or mixture, 25% by weight TPGS, 75% by weight PG, read-out: Solubility TPGS/PG) [µg/mL] | Compound |
| --- | --- | --- | --- | --- | --- | --- | --- | --- | --- | --- | --- | --- | --- | --- | --- |
|  | 240 (≈ 522 µM) | 40 (≈ 87.1 µM) | 490 (≈ 1070 µM) | 12.8 | 4 | 1.7 | 36 | 0.47 |  |  |  |  |  |  | CCN(CC)C(=O)/C(C#N)=C/c1cc(OC(=O)OCCc2cccs2)c(O)c([N+](=O)[O-])c1 [Compound 61, Carbonic acid 5-((E)-2-cyano-2-diethylcarbamoyl-vinyl)-2-hydroxy-3-nitro-phenyl ester 2-thiophen-2-yl-ethyl ester] |
| 30 (≈ 71.5 µM) | 840 (≈ 2000 µM) | 190 (≈ 453 µM) | 1330 (≈ 3170 µM) | 38.5 | 38.5 | 1.8 | 22.4 |  | 30 (≈ 71.5 µM) | 840 (≈ 2000 µM) | 1330 (≈ 3170 µM) | 190 (≈ 453 µM) | 22000 (≈ 52500 µM) | 3900 (≈ 9300 µM) | CCC(CC)OC(=O)Oc1cc(/C=C(\C#N)C(=O)N(CC)CC)cc([N+](=O)[O-])c1O [Compound 10, Carbonic acid 5-((E)-2-cyano-2-diethylcarbamoyl-vinyl)-2-hydroxy-3-nito-phenyl ester 1-ethyl-propyl ester] |
| 10 (≈ 25.6 µM) | 290 (≈ 741 µM) | 200 (≈ 511 µM) | 470 (≈ 1200 µM) | 23.1 | 7.2 | 1.2 | 18 | 0.112 |  |  |  |  |  |  | CCCOC(=O)Oc1cc(/C=C(\C#N)C(=O)N(CC)CC)cc([N+](=O)[O-])c1O [Compound 41, Carbonic acid 5-((E)-2-cyano-2-diethylcarbamoyl-vinyl)-2-hydroxy-3-nitro-phenyl ester propyl ester] |
| 20 (≈ 49.3 µM) | 530 (≈ 1310 µM) | 200 (≈ 493 µM) | 530 (≈ 1310 µM) | 6.8 | 11.6 | 1.4 | 24 | 0.128 |  |  |  |  |  |  | CCN(CC)C(=O)/C(C#N)=C/c1cc(OC(=O)OCC(C)C)c(O)c([N+](=O)[O-])c1 [Compound 1, Carbonic acid 5-((E)-2-cyano-2-diethylcarbamoyl-vinyl)-2-hydroxy-3-nitro-phenyl ester isobutyl ester] |

From patent US20080103191A1, “ENTACAPONE-DERIVATIVES” (priority 2006, published 2008)
